Measured values published in patent publication US6204289A, “Cembranoid inhibitors of nicotinic acetylcholine receptors” (priority 1998, dated 2001).

Tested on: peripheral and neuronal AchRs
Test: Inhibition of peripheral and neuronal AchRs (summary statement)
Description: Cembranoids are cyclic diterpenoids naturally present in many plants and invertebrate animals. We discovered that cembranoids inhibit both peripheral and neuronal AchRs at concentrations ranging from 10^-15 molar to 10^-4 molar; cembranoids also increase the rate of receptor desensitization. Seventeen different cembranoid analogs were tested. There are two main differences between previously known AchR inhibitors and these new cembranoid inhibitors. […] Second, cembranoids are present in tobacco leaves, and therefore potentially have an effect on nicotine action in the brains of cigarette smokers. Nicotine-induced desensitization of neuronal acetylcholine receptors is related to behavioral tolerance or addiction to nicotine (6); since cembranoids increase receptor desensitization, they are likely to increase tobacco addictive properties. Thus, by extracting the cembranoids from tobacco, this could produce less addictive cigarettes (or any tobacco related product). On the other hand, addition of cembranoids to tobacco could possibly increase its addictive properties. In addition, cembranoids displace general anesthetics from the muscle-type AchR, and so they could ameliorate the undesirable side-effects of anesthesia in patients with Myasthenia gravis.
We discovered that cembranoids isolated from gorgonian-corals inhibit both peripheral and neuronal AchRs.

Molecule	potency relative to any previously known AchR inhibitors (factor)
C=C(C(=O)O)C1CC/C(C)=C/CC/C(C)=C/CCC2(C)OC2C1 (centres unmarked) [pseudoplexauric acid]	at least 1000
eupalmerin acetate	at least 1000
